Test results: paper PMC6849638 (2019)

Columns and labels:
Test in all cases: luminescence titration
Settings in all cases: Na+ 100 mM; 20 mM Tris-HCl, pH 7.5, 298 K; apparent
[1] = test system: A2T2 (DNA, hairpin) GGCGAATTCAGCTTTTTGCTGAATTCGCC
[2] = test system: A2T3 (DNA, hairpin) GGCGAATTTCGCTTTTTGCGAAATTCGCC
[3] = test system: G2C3 (DNA, hairpin) GGCAGGCCCAGCTTTTTGCTGGGCCTGCC
[4] = test system: A3T3 (DNA, hairpin) GGCAAATTTCAGTTTTTCTGAAATTTGCC

KD [1] | KD [2] | KD [3] | KD [4] | Compound
0.27 (0.09) μM | 0.49 (0.03) μM | 1.44 (0.09) μM | 1.01 (0.12) μM | N=C(N)c1ccc(NCc2ccnc(-c3cc(CNc4ccc(C(=N)N)cc4)ccn3)c2)cc1.[Ir+3].[c-]1ccccc1-c1ccccn1.[c-]1ccccc1-c1ccccn1 [Δ-4Ir]
1.15 (0.13) μM | 0.62 (0.04) μM | 0.70 (0.05) μM | 0.47 (0.03) μM | N=C(N)c1ccc(NCc2ccnc(-c3cc(CNc4ccc(C(=N)N)cc4)ccn3)c2)cc1.[Ir+3].[c-]1ccccc1-c1ccccn1.[c-]1ccccc1-c1ccccn1 [Λ-4Ir]
